In US11479604B2, “Immunomodulatory peptides and methods for modulating the immune system in a subject” (Recepta Biopharma S.A., priority 2017, dated 2022):
Entries after “also recorded” stand apart in the source; their conditions may differ.

How the values were obtained:
B16F10-Nex2 melanoma = test: Subcutaneous melanoma model; assay type: in vivo, C57BL/6 mice; settings: i.p. administration
Description: Male C57BL/6 mice, 6 to 8-week-old were obtained from the Center for Development of Experimental Models (CEDEME), Federal University of Sao Paulo (UNIFESP). For the in vivo metastatic model, C57BL/6 mice received one intravenous (i.v.) injection of 2×10^5 viable B16-F10-Next melanoma cells in 100 μL. […] The control group received 100 μL PBS. Twenty-two days later, mice (minimum n=3 per group) had their lungs harvested, and the number of macroscopic melanotic nodules were counted. The Ethical Committee of Federal University of São Paulo, Project no. 1234, 2011, approved all experiments with animals, according to International guidelines. For the subcutaneous model, mice were injected with 5×10^5 tumor cells suspended in 100 μL of PBS in the right flank via the subcutaneous route. The peptide (300 μg) was solubilized in 10 μL of distilled H2O and 90 μL of PBS and injected per mouse via the intraperitoneal route. The administration of the peptide was performed in 5 alternate days initiating one day after tumor challenge. Tumor longitudinal diameter (D) and transverse diameter (d) were measured every 2 days until the tumor volume reached 3,000 mm3. Animals were sacrificed when the allowed volume was reached. Volume was calculated using the formula v=Dd^2×0.52. […]

[1] = test system: B16F10-Nex2 melanoma cells; test: Prophylactic adoptive transfer of peptide-stimulated dendritic cells, metastatic melanoma; assay type: in vivo, syngeneic mice; settings: DCs incubated with 50 μg/ml peptide, with or without tumor cell lysate; s.c.; tumor challenge day 14, count day 29
Description: DCs were obtained from the bone marrow of 6 to 8-week-old C57Bl6 mice. Briefly, femora and tibiae from mice were removed and stripped of muscles and tendons; both bone ends were cut, and bone marrow was extracted by placing the bone pieces into 1-ml tips, which in turn were inserted into 15-ml tubes and centrifuged for 10 minutes at 1500 rpm. Cells were resuspended in DMEM and cell clusters were dissociated by repeated pipetting. The total bone marrow cells were cultured in 100-mm treated tissue culture dish in 10 ml of R10 medium (DMEM medium supplemented with 2 mM glutamine, 10,000 U/ml penicillin, 10 mg/ml streptomycin, 50 μM 2-mercaptoethanol, 1 mM sodium pyruvate, MEM-nonessential aminoacids, MEM Vitamin solution, 10% heat-inactivated fetal bovine serum and GM-CSF (20 ng/ml) and IL-4 (40 ng/ml). Fresh medium (3 ml) with GM-CSF (200 ng/ml) and IL-4 (400 ng/ml) was added every 3 days. On day 7, adherent cells, that were harvested using PBS 2 mM EDTA, together with the non-adherent cells were pooled and used as the starting cell source for the experiments. BMDC Protocol 2
DCs were inoculated s.c. in syngeneic mice. On day 14, mice were inoculated i.v. with melanoma tumor cells (5×10^5 cells) and on day 29, the lung melanotic nodules were counted.

[2] = test system: B16F10-Nex2 melanoma cells; test: Syngeneic metastatic melanoma model, lung nodule count; assay type: in vivo, C57BL/6 mice
Description: Male C57BL/6 mice, 6 to 8-week-old were obtained from the Center for Development of Experimental Models (CEDEME), Federal University of Sao Paulo (UNIFESP). For the in vivo metastatic model, C57BL/6 mice received one intravenous (i.v.) injection of 2×10^5 viable B16-F10-Next melanoma cells in 100 μL. […] The control group received 100 μL PBS. Twenty-two days later, mice (minimum n=3 per group) had their lungs harvested, and the number of macroscopic melanotic nodules were counted. The Ethical Committee of Federal University of São Paulo, Project no. 1234, 2011, approved all experiments with animals, according to International guidelines. For the subcutaneous model, mice were injected with 5×10^5 tumor cells suspended in 100 μL of PBS in the right flank via the subcutaneous route. The peptide (300 μg) was solubilized in 10 μL of distilled H2O and 90 μL of PBS and injected per mouse via the intraperitoneal route. The administration of the peptide was performed in 5 alternate days initiating one day after tumor challenge. Tumor longitudinal diameter (D) and transverse diameter (d) were measured every 2 days until the tumor volume reached 3,000 mm3. Animals were sacrificed when the allowed volume was reached. Volume was calculated using the formula v=Dd^2×0.52. Tumor Cell Growth In Vitro and In Vivo Details of the in vitro tumor cell growth, cytotoxicity tests, determination of viable cells and in vivo protection experiments with B16F10 cells in a mouse metastatic model are described in Polonelli et al. (PLoS One. 3(6):e2371, 2008) and Dobroff et al. (Transl. Onc., 3: 204-217, 2010).
6 to 8 Week-old C57BL/6 mice (n=5, per group) were intravenously challenged with 1×10^5 of syngeneic B16F10-Nex2 viable cells in 0.1 mL of RPMI medium without FBS, and treated on the next day with intraperitoneal doses of 300 μg (10 mg/kg) each, of Scr1, Scr2, Scr3 or Scr4 peptide or with the control vehicle (PBS) in alternate days, total of 5 doses. After 14 days, mice were euthanized, and lungs were harvested and assessed for metastatic colonization. The number of metastatic lesions was quantified using a stereo microscope (Nikon, Tokyo). The percentage of the tumor area/total area was also quantified by ImageJ software.
B16F10-Nex2 tumor cells (2×10^5) in RPMI (100 μl) were injected in both animal groups in the tail veins on day 0. Animals were sacrificed on day 22, or 10 days after the last administration of the peptide, and their lungs were examined for dark melanotic nodules.
C57Bl6 mice were intravenously challenged with 4×10^5 syngeneic B16F10-Nex2 cells in 0.1 ml of RPMI without FBS.
Mice were injected with 5×10^5 B16F10-Nex2 cells i.v. suspended in 100 μl PBS. […] Imiquimod at 50 μg/100 μl was injected i.p. in 3 alternate days; CpG ODN 1585, i.p., in two alternate days; and Poly (I:C), i.p., in two alternate days. After 15 days of tumor challenge, the animals were sacrificed, the lungs were removed and the pulmonary nodules were counted.

## [CARGETARATFAYWGQGC], NH2 (C-C) [Rb9]
B16F10-Nex2 melanoma
  response of subcutaneous growing melanoma to peptide: much more resistant; also recorded: resistant
[1]
  protective effect of peptide-stimulated DCs (lung melanotic nodules): remarkable protective effect
[2]; 50-100 μg i.p. doses
  protection in the metastatic model: significant protection
[2]; i.d. route compared with i.p. and i.v.
  efficiency of administration route for antitumor protection: mostly efficient
[2]; i.p., alone, Rb9 300 μg 5 consecutive days, Imiquimod 50 μg 3 alternate days, CpG and Poly (I:C) two alternate days, 15 days after challenge
  antitumor activity (pulmonary nodules): Antitumor activities of Rb9 and Imiquimod were the same
[2]; i.p., 15 days after challenge
  antitumor activity of the combination of Rb9 and Imiquimod: not additive
[2]; immunocompetent C57Bl6 mice, 250 μg i.p. on days 1,3,5,7,9,11, lungs on day 22
  number of lung tumor cell nodules (protection): clearly protective
[2]; metastatic model
  best concentrations for protection, dose range per animal: 200 to 300 µg
